Values after ≈ are worked out from the molar mass of the structure shown.
Legend:
[1] = Compound was evaluated for its stability in phosphate buffer in absence of EDTA at pH 7.4; format: physicochemical; details: phosphate buffer without EDTA
[2] = Compound was evaluated for its stability in phosphate buffer in presence of EDTA at pH 7.4; format: physicochemical; details: phosphate buffer with EDTA
[3] = Solubility of compound in 50 mM sodium phosphate buffer at room temperature; format: physicochemical; details: read-out: S
[4] = Half-life in phosphate buffer at pH 7 and 37 degree C; format: ADME

Compound	half-life [1] [h]	half-life [2] [h]	solubility [3] [mg/mL]	half-life [4] [h]
CC(=O)NC(C(=O)NC1C(O)OC(CO)C(O)C1O)C(C)(C)SN=O (stereo not drawn)	27.4	27.5	> 1000	–
CC(=O)N[C@@H](C(=O)O)C(C)(C)SN=O	10.3	15.9	2 (≈ 9.08 mM)	5
CC(=O)NC(C(=O)NC1OC(CO)C(O)C(O)C1O)C(C)(C)SN=O (stereo not drawn)	30.2	28.5	> 1000	–
COC1OC(CNC(=O)C(NC(C)=O)C(C)(C)SN=O)C(O)C(O)C1O (stereo not drawn)	28.2	30.2	> 1000	–
